In PubChem BioAssay AID1845209 (Molecular Pharmacology Branch, DTP, NCI, 2023):

System: NCI-H211 tumor spheroids, viability percent test/control
Test: Anticancer human tumor NCI-H211 cell line growth inhibition;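 note: spheroids exposed to agents for seven days before readout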
Conditions: spheroids with HUVEC and MSC; for IC50: curve of first compound; for viability, T/C: stronger effect = lower value
Procedure, shortened: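 Complex tumor spheroids combined malignant cells with endothelial cells and mesenchymal stem cells. DNA-damaging drugs and DNA repair inhibitors were tested alone and in combination, at half-log dilutions down from clinical Cmax (top 10 microM if Cmax unknown), 0.25% DMSO final.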

[1] = second compound 0.003 µM, first compound 0.0316 µM
[2] = second compound 0.003 µM, first compound 0.1 µM
[3] = second compound 0.003 µM, first compound 0.316 µM
[4] = second compound 0.003 µM, first compound 1 µM
[5] = second compound 0.003 µM, first compound 3.16 µM
[6] = second compound 0.003 µM, first compound 10 µM
[7] = second compound 0.00949 µM, first compound 0.0316 µM
[8] = second compound 0.00949 µM, first compound 0.1 µM
[9] = second compound 0.00949 µM, first compound 0.316 µM
[10] = second compound 0.00949 µM, first compound 1 µM
[11] = second compound 0.00949 µM, first compound 3.16 µM
[12] = second compound 0.00949 µM, first compound 10 µM
[13] = second compound 0.03 µM, first compound 0.0316 µM
[14] = second compound 0.03 µM, first compound 0.1 µM
[15] = second compound 0.03 µM, first compound 0.316 µM
[16] = second compound 0.03 µM, first compound 1 µM
[17] = second compound 0.03 µM, first compound 3.16 µM
[18] = second compound 0.03 µM, first compound 10 µM
[19] = second compound 0.0949 µM, first compound 0.0316 µM
[20] = second compound 0.0949 µM, first compound 0.1 µM
[21] = second compound 0.0949 µM, first compound 0.316 µM
[22] = second compound 0.0949 µM, first compound 1 µM
[23] = second compound 0.0949 µM, first compound 3.16 µM
[24] = second compound 0.0949 µM, first compound 10 µM
[25] = second compound 0.3 µM, first compound 0.0316 µM
[26] = second compound 0.3 µM, first compound 0.1 µM
[27] = second compound 0.3 µM, first compound 0.316 µM
[28] = second compound 0.3 µM, first compound 1 µM
[29] = second compound 0.3 µM, first compound 3.16 µM
[30] = second compound 0.3 µM, first compound 10 µM

Row | SMILES | IC50 (second compound 0.003 µM) [nM] | IC50 (second compound 0.00949 µM) [nM] | IC50 (second compound 0.03 µM) [nM] | IC50 (second compound 0.0949 µM) [nM] | IC50 (second compound 0.3 µM) [nM] | viability, T/C [1] [%] | viability, T/C [2] [%] | viability, T/C [3] [%] | viability, T/C [4] [%] | viability, T/C [5] [%] | viability, T/C [6] [%] | viability, T/C [7] [%] | viability, T/C [8] [%] | viability, T/C [9] [%] | viability, T/C [10] [%] | viability, T/C [11] [%] | viability, T/C [12] [%] | viability, T/C [13] [%] | viability, T/C [14] [%] | viability, T/C [15] [%] | further results
1 | CC(C)n1c(=O)n(C)c2cnc3cc(F)c(-c4ccc(OCCCN5CCCCC5)nc4)cc3c21 + CC[C@@]1(O)C(=O)OCc2c1cc1n(c2=O)Cc2cc3c(CN(C)C)c(O)ccc3nc2-1 | < 31.6 | < 31.6 | < 31.6 | < 31.6 | < 31.6 | 19.9 | 22 | 20 | 18.8 | 10.9 | 2.91 | 0.98 | 0.97 | 1.23 | 1.31 | 1.09 | 0.52 | 1.27 | 0.81 | 0.82 | viability, T/C [16]: 0.85%; viability, T/C [17]: 0.81%; viability, T/C [18]: 0.5%; viability, T/C [19]: 0.98%; viability, T/C [20]: 1.01%; viability, T/C [21]: 0.97%; viability, T/C [22]: 0.94%; viability, T/C [23]: 1%; viability, T/C [24]: 0.57%; viability, T/C [25]: 1.06%; viability, T/C [26]: 0.95%; viability, T/C [27]: 0.85%; viability, T/C [28]: 1.2%; viability, T/C [29]: 1.02%; viability, T/C [30]: 0.73%
2 | CC1COCCN1c1cc(-c2ccnn2C)c2ccnc(-c3ccn[nH]3)c2n1 (stereo not given) + CC[C@@]1(O)C(=O)OCc2c1cc1n(c2=O)Cc2cc3c(CN(C)C)c(O)ccc3nc2-1 | < 31.6 | < 31.6 | < 31.6 | < 31.6 | < 31.6 | 1.02 | 1.19 | 1.59 | 0.56 | 0.45 | 0.65 | 1.86 | 0.7 | 1.15 | 0.42 | 0.4 | 0.58 | 1.1 | 1.24 | 0.67 | viability, T/C [16]: 1.07%; viability, T/C [17]: 0.38%; viability, T/C [18]: 0.47%; viability, T/C [19]: 0.72%; viability, T/C [20]: 0.9%; viability, T/C [21]: 0.83%; viability, T/C [22]: 0.52%; viability, T/C [23]: 0.66%; viability, T/C [24]: 1.17%; viability, T/C [25]: 1%; viability, T/C [26]: 0.97%; viability, T/C [27]: 0.71%; viability, T/C [28]: 0.83%; viability, T/C [29]: 1.25%; viability, T/C [30]: 0.81%
3 | COc1cc(C)[nH]c(=O)c1CN1CCc2c(Cl)cc(C(OC)C3COC3)c(Cl)c2C1=O (stereo not given) + CC[C@@]1(O)C(=O)OCc2c1cc1n(c2=O)Cc2cc3c(CN(C)C)c(O)ccc3nc2-1 | > 10000 | 44.3 | < 31.6 | < 31.6 | < 31.6 | 97.8 | 94.2 | 94.5 | 80.2 | 84.6 | 79.1 | 61.2 | 23.1 | 19.7 | 23.1 | 20.5 | 17.4 | 2.26 | 1.33 | 1.49 | viability, T/C [16]: 1.03%; viability, T/C [17]: 0.89%; viability, T/C [18]: 1.35%; viability, T/C [19]: 1.49%; viability, T/C [20]: 1.42%; viability, T/C [21]: 1.65%; viability, T/C [22]: 1.41%; viability, T/C [23]: 1.22%; viability, T/C [24]: 0.83%; viability, T/C [25]: 1.31%; viability, T/C [26]: 1.63%; viability, T/C [27]: 1.29%; viability, T/C [28]: 1.18%; viability, T/C [29]: 1.75%; viability, T/C [30]: 0.92%
4 | COc1ccc([C@@H](O)c2cc(-c3ncnc4cc(N5CCOCC5)ccc34)c(F)cc2Cl)nn1 + CC[C@@]1(O)C(=O)OCc2c1cc1n(c2=O)Cc2cc3c(CN(C)C)c(O)ccc3nc2-1 | 3600 | < 31.6 | < 31.6 | < 31.6 | < 31.6 | 112 | 109 | 109 | 80.8 | 57.8 | 5.72 | 18.5 | 19 | 34.5 | 10.9 | 4.32 | 1.55 | 0.99 | 1.23 | 0.9 | viability, T/C [16]: 0.66%; viability, T/C [17]: 0.4%; viability, T/C [18]: 0.33%; viability, T/C [19]: 0.86%; viability, T/C [20]: 0.83%; viability, T/C [21]: 0.77%; viability, T/C [22]: 1.43%; viability, T/C [23]: 0.37%; viability, T/C [24]: 0.32%; viability, T/C [25]: 0.92%; viability, T/C [26]: 1.06%; viability, T/C [27]: 0.96%; viability, T/C [28]: 0.94%; viability, T/C [29]: 1.01%; viability, T/C [30]: 0.26%
5 | [2H]c1nc(C)nc([2H])c1-c1cc(NC[C@@H](C)c2cccc3c(C(=O)NC)ccnc23)ncn1 + CC[C@@]1(O)C(=O)OCc2c1cc1n(c2=O)Cc2cc3c(CN(C)C)c(O)ccc3nc2-1 | 8430 | < 31.6 | < 31.6 | < 31.6 | < 31.6 | 65.3 | 63.1 | 49.7 | 65.6 | 51 | 48.1 | 4.11 | 1.98 | 1.95 | 1.63 | 2.52 | 1.58 | 0.8 | 1.15 | 1.33 | viability, T/C [16]: 0.93%; viability, T/C [17]: 1.82%; viability, T/C [18]: 1.19%; viability, T/C [19]: 1.46%; viability, T/C [20]: 0.76%; viability, T/C [21]: 1.4%; viability, T/C [22]: 0.83%; viability, T/C [23]: 1.25%; viability, T/C [24]: 1.69%; viability, T/C [25]: 1.19%; viability, T/C [26]: 1.37%; viability, T/C [27]: 0.88%; viability, T/C [28]: 1.14%; viability, T/C [29]: 0.92%; viability, T/C [30]: 0.98%
